Data on one compound can be found in US20100152244A1, “SELF-EMULSIFYING FORMULATION OF TIPRANAVIR FOR ORAL ADMINISTRATION” (BOEHRINGER INGELHEIM INTERNATIONAL GMBH, priority 2008, published 2010).

The nature of this series: lipophilicity (Log P). It is filed as physicochemical. From the text: One possible reason for the self emulsifying behavior of the Capmul-free formulation is that tipranavir which is a highly lipophilic compound (Log P=6) once dissolved serves as a lipid core in this pre-concentrated microemulsion system. However, this rationale is only a theory and it was certainly not available to serve as guidance and motivation to us when we set about to solve the instability problem posed by the Capmul-containing formulation.

As for `CCC[C@@]1(CCc2ccccc2)CC(O)=C([C@H](CC)c2cccc(NS(=O)(=O)c3ccc(C(F)(F)F)cn3)c2)C(=O)O1` [tipranavir, N-[3-[(1R)-1-[(6R)-5,6-dihydro-4-hydroxy-2-oxo-6-(2-phenylethyl)-6-propyl-2H-pyran-3-yl]propyl]phenyl]-5-(trifluoromethyl)-2-pyridinesulfonamide], the lipophilicity (logP) – broadly, a log measure of how a compound divides between an organic and an aqueous phase – stood at 6.
